Measured values published in ChEMBL document CHEMBL5678818, “Discovery of potent SOS1 inhibitors that block RAS activation via disruption of the RAS-SOS1 interaction” (Proc Natl Acad Sci U S A, 2019).

Columns and labels:
[1] = target: T1, Serine/threonine-protein kinase D1 (Homo sapiens) (UniProt Q15139); test: Inhibition of PRKD1 (unknown origin) assessed as residual activity at 1000 nM by KINOMEscan analysis relative to control
T1 sequence (whole entry): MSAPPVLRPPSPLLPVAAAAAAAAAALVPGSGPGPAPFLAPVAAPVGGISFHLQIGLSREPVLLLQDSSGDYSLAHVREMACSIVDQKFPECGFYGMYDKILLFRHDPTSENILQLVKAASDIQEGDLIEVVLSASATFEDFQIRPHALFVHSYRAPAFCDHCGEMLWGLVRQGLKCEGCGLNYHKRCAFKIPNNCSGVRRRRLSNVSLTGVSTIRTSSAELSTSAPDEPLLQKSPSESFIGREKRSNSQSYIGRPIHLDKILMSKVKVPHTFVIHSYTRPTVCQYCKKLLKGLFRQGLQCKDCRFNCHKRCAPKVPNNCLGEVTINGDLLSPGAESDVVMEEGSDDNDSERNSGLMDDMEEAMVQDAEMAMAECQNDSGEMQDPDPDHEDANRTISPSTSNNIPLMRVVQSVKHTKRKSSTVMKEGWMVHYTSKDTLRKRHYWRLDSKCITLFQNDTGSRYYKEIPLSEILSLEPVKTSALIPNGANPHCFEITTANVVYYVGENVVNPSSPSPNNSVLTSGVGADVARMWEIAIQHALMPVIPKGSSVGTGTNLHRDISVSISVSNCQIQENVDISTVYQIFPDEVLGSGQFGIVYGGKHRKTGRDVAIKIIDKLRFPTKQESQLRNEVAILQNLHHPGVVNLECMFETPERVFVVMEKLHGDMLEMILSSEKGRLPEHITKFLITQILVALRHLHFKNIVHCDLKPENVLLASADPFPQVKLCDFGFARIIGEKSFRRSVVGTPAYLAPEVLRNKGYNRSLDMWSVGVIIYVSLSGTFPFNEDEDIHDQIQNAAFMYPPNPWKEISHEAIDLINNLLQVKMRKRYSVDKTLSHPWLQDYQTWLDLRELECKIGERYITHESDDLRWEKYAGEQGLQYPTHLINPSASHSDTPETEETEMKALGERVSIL

Homo sapiens = species on record: Homo sapiens; test: Inhibition of PIP5K1C (unknown origin) assessed as residual activity at 1000 nM by KINOMEscan analysis relative to control
[2] = target: Cyclin-dependent kinase-like 3 (Homo sapiens) (UniProt Q8IVW4); test: Inhibition of CDKL3 (unknown origin) assessed as residual activity at 1000 nM by KINOMEscan analysis relative to control
[3] = target: Calcium/calmodulin-dependent protein kinase type 1 (Homo sapiens) (UniProt Q14012); test: Inhibition of CAMK1 (unknown origin) assessed as residual activity at 1000 nM by KINOMEscan analysis relative to control
[4] = target: Serine/threonine-protein kinase SIK1 (Homo sapiens) (UniProt P57059); test: Inhibition of SIK (unknown origin) assessed as residual activity at 1000 nM by KINOMEscan analysis relative to control
[5] = target: T2, cAMP-dependent protein kinase catalytic subunit PRKX (Homo sapiens) (UniProt P51817); test: Inhibition of PRKX (unknown origin) assessed as residual activity at 1000 nM by KINOMEscan analysis relative to control
T2 sequence (whole entry): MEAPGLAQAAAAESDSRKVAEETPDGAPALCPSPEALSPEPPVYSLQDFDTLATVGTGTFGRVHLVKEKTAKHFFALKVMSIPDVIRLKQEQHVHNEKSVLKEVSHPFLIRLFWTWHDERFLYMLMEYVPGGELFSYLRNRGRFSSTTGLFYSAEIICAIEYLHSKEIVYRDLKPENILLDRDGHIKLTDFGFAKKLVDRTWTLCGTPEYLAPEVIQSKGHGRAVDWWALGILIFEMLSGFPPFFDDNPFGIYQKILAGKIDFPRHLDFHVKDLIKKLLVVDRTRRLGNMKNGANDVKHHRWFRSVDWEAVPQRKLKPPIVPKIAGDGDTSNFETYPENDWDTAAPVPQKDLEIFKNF

[6] = system: Phosphatidylinositol 4,5-bisphosphate 3-kinase catalytic subunit alpha isoform (Homo sapiens), P42336 [E545A]; test: Inhibition of PIK3CA E545A mutant (unknown origin) assessed as residual activity at 1000 nM by KINOMEscan analysis relative to control
[7] = target: T3, Serine/threonine-protein kinase 17A (Homo sapiens) (UniProt Q9UEE5); test: Inhibition of DRAK1 (unknown origin) assessed as residual activity at 1000 nM by KINOMEscan analysis relative to control
T3 sequence (whole entry): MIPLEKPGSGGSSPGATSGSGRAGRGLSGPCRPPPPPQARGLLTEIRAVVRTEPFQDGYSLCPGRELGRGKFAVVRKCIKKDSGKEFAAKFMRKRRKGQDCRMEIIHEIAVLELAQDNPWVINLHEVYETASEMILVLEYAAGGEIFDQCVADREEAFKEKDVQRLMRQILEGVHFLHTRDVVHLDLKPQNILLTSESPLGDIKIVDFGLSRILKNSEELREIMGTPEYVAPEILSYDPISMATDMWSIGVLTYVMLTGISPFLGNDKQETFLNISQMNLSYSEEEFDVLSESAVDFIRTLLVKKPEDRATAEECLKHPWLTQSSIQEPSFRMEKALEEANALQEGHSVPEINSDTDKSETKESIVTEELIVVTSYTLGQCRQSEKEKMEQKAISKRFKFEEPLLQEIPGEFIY

[8] = target: T4, Serine/threonine-protein kinase STK11 (Homo sapiens) (UniProt Q15831); test: Inhibition of LKB1 (unknown origin) assessed as residual activity at 1000 nM by KINOMEscan analysis relative to control
T4 sequence (whole entry): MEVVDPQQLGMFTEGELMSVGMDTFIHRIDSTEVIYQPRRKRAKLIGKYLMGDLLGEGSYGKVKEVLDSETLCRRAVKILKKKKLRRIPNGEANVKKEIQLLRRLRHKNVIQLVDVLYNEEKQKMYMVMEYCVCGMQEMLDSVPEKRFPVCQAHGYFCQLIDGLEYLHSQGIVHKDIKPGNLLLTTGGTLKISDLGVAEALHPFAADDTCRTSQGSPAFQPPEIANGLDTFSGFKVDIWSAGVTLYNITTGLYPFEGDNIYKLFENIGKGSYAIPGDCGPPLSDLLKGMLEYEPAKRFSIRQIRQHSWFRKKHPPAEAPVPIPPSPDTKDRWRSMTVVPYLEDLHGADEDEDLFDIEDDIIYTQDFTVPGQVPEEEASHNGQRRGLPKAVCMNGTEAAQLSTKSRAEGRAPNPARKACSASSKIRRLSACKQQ

Sequence of Cyclin-dependent kinase-like 3 (Homo sapiens) (Q8IVW4 whole entry, looked up): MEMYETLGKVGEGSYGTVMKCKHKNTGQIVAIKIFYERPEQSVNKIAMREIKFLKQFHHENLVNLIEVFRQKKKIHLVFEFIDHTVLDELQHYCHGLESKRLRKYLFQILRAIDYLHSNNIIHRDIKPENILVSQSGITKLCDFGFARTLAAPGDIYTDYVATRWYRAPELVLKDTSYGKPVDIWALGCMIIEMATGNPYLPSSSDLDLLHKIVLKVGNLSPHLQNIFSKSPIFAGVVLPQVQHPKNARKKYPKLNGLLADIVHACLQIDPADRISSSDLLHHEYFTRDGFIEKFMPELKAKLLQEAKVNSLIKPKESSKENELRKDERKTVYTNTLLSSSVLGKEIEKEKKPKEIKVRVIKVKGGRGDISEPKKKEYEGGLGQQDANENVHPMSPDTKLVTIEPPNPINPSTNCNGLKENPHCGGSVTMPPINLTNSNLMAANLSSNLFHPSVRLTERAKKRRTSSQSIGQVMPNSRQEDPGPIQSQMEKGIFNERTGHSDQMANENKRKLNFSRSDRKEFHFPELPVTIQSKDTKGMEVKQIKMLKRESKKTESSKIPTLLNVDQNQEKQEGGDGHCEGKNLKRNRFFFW
Sequence of Serine/threonine-protein kinase SIK1 (Homo sapiens) (P57059 whole entry): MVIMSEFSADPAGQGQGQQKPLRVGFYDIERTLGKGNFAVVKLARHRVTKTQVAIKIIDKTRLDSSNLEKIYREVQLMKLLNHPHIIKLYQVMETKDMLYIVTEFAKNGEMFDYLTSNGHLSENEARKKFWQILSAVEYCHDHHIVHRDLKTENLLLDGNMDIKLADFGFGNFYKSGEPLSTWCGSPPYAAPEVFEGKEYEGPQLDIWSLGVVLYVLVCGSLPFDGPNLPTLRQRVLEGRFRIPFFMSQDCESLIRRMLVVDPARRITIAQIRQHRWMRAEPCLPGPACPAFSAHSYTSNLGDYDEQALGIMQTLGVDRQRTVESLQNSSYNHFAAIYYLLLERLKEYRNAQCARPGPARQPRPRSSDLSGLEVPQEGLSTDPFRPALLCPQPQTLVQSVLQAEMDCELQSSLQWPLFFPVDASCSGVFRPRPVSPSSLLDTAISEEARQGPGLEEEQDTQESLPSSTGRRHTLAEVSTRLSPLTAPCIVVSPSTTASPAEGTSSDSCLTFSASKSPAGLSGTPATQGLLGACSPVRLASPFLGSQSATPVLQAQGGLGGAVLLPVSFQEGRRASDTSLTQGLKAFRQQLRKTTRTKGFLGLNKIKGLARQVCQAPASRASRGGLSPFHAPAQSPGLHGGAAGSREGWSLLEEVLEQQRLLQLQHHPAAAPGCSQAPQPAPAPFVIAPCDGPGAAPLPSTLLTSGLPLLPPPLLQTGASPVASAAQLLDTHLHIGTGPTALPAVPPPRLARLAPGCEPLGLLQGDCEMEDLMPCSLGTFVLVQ
Sequence of Phosphatidylinositol 4,5-bisphosphate 3-kinase catalytic subunit alpha isoform (Homo sapiens), P42336 [E545A] (P42336 whole entry E545A, canonical isoform): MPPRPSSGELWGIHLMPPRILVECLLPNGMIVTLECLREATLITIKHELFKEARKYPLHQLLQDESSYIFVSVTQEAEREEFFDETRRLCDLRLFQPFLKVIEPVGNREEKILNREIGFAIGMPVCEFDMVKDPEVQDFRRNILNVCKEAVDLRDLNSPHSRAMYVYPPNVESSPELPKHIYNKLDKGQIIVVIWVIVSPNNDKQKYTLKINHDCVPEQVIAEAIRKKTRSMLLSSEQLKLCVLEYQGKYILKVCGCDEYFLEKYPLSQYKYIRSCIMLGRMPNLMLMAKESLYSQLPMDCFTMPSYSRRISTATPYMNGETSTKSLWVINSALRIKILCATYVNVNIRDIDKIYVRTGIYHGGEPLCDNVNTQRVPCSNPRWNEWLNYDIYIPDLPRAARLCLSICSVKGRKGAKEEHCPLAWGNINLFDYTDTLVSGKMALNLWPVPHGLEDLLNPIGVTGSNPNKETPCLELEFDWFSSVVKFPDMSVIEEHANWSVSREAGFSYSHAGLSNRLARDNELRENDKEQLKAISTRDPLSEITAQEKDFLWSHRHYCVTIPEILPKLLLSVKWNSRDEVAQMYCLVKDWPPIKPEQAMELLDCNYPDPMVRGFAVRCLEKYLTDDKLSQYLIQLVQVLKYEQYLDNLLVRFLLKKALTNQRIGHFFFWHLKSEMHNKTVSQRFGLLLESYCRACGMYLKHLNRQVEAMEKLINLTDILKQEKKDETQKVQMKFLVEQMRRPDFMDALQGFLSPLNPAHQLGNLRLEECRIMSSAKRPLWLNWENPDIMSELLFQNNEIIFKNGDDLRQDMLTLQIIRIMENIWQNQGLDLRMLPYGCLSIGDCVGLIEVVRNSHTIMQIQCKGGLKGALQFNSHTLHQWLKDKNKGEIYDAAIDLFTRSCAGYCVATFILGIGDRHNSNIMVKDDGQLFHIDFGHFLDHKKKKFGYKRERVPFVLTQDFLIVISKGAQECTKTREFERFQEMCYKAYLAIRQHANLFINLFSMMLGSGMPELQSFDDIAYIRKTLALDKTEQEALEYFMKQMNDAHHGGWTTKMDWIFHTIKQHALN
Sequence of Calcium/calmodulin-dependent protein kinase type 1 (Homo sapiens) (Q14012 whole entry, looked up): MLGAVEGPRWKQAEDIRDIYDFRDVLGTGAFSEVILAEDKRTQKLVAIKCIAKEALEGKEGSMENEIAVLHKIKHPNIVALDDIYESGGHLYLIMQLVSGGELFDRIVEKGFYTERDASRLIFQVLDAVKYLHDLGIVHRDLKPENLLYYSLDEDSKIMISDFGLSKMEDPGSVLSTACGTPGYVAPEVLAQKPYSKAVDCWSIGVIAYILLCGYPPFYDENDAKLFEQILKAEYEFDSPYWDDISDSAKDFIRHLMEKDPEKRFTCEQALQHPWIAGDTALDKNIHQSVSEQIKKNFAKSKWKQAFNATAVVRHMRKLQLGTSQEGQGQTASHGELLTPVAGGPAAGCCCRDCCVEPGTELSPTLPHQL

SMILES | Activity [1] [%] | Activity (Homo sapiens) [%] | Activity [2] [%] | Activity [3] [%] | Activity [4] [%] | Activity [5] [%] | Activity [6] [%] | Activity [7] [%] | Activity [8] [%]
COc1cc2nc(C)nc(N[C@H](C)c3cccc(-c4cn[nH]c4)c3)c2cc1OC | 85 | 75 | 87 | 73 | 65 | 100 | 66 | 87 | 100
COc1cc2ncnc(N[C@H](C)c3cccc4ccccc34)c2cc1OC | 95 | 82 | 84 | 100 | 98 | 96 | 91 | 100 | 100
